A value given as a limit tells only on which side of the number the result lay.

Sequence of Amyloid-beta precursor protein (P05067 whole entry): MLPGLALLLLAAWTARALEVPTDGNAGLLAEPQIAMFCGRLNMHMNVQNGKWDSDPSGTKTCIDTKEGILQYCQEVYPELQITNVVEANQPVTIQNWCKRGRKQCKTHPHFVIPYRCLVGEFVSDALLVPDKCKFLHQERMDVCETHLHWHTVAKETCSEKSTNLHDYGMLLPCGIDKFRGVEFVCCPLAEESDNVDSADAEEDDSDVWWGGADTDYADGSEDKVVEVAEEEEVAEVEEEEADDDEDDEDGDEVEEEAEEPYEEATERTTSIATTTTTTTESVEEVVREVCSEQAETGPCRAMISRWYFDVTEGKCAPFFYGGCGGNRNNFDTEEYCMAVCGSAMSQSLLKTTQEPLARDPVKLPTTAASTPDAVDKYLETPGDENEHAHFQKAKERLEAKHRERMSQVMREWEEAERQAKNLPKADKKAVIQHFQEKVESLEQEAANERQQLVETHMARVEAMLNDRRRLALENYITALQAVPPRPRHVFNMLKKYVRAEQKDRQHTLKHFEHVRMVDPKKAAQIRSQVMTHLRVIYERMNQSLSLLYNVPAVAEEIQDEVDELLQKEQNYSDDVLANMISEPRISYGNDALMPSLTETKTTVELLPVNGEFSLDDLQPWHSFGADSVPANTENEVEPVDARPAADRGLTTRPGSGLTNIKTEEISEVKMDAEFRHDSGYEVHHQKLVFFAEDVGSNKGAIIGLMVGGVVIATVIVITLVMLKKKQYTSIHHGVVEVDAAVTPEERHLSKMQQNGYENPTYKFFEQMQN

This test has as its target Amyloid-beta precursor protein (Homo sapiens, UniProt P05067). Description: Inhibitory activity against binding of [125I]IMSB to amyloid beta in brain. The test is classed as tissue-based.
One may read the Ki as the dissociation constant of the complex between target and ligand, obtained from inhibition or displacement. A higher Ki goes with lower affinity. For `O=C(O)c1cc(/C=C\c2ccc(/C=C/c3ccc(O)c(C(=O)O)c3)cc2Br)ccc1O`, affinity was put at a Ki of 0.19 nM.
The value for `O=C(O)c1cc(/C=C\c2ccc(/C=C/c3ccc(O)c(C(=O)O)c3)c(Br)c2)ccc1O` was 0.27 nM; that for `O=C(O)c1cc(/C=C\c2ccc(/C=C\c3ccc(O)c(C(=O)O)c3)c(Br)c2)ccc1O` was 0.13 nM.
The value for `O=C(O)c1cc(/C=C/c2ccc(/C=C/c3ccc(O)c(C(=O)O)c3)c(Br)c2)ccc1O` was 0.11 nM; that for `O=C(O)c1ccccc1O` [SALICYLIC ACID] was > 1800 nM.

The values are drawn from ChEMBL document CHEMBL1134523, “Isomerization of (Z,Z) to (E,E)1-bromo-2,5-bis-(3-hydroxycarbonyl-4-hydroxy)styrylbenzene in strong base: probes for amyloid plaques in the brain” (J Med Chem, 2001).
